Data reported in PubChem BioAssay (NCI).
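In this assay, cells in 96-well plates receive the compound at five concentrations for 48 hours. Endpoints are linearly interpolated between the surrounding concentrations. At the GI50, growth is halved. TGI is the concentration that stops growth completely.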

Tests used:
Test in all cases: NCI-60 cell line screen, 48 h
SK-MEL-5 melanoma = test system: SK-MEL-5 melanoma
DU-145 prostate = test system: DU-145 prostate
KM12 colon = test system: KM12 colon
A549 NSCLC = test system: A549 NSCLC
SW-620 colon = test system: SW-620 colon
COLO 205 colon = test system: COLO 205 colon
OVCAR-3 ovarian = test system: OVCAR-3 ovarian
UACC-257 melanoma = test system: UACC-257 melanoma
BT-549 breast = test system: BT-549 breast
NCI-H522 lung = test system: NCI-H522 lung
786-0 renal = test system: 786-0 renal
SK-MEL-28 melanoma = test system: SK-MEL-28 melanoma
HCC-2998 colon = test system: HCC-2998 colon
MDA-MB-435 = test system: MDA-MB-435
HOP-92 NSCLC = test system: HOP-92 NSCLC
K-562 leukemia = test system: K-562 leukemia
M14 melanoma = test system: M14 melanoma
SK-MEL-2 melanoma = test system: SK-MEL-2 melanoma
CAKI-1 renal = test system: CAKI-1 renal
HS 578T breast = test system: HS 578T breast
T-47D breast = test system: T-47D breast
RXF 393 renal = test system: RXF 393 renal
MDA-MB-231 breast = test system: MDA-MB-231 breast
PC-3 prostate = test system: PC-3 prostate
OVCAR-4 ovarian = test system: OVCAR-4 ovarian
UO-31 renal = test system: UO-31 renal
SNB-75 CNS = test system: SNB-75 CNS
HCT-116 colon = test system: HCT-116 colon
SK-OV-3 ovarian = test system: SK-OV-3 ovarian
IGROV1 ovarian = test system: IGROV1 ovarian
SF-268 CNS = test system: SF-268 CNS
SN12C renal = test system: SN12C renal
UACC-62 melanoma = test system: UACC-62 melanoma
U251 CNS = test system: U251 CNS
A498 renal = test system: A498 renal
CCRF-CEM leukemia = test system: CCRF-CEM leukemia
OVCAR-8 ovarian = test system: OVCAR-8 ovarian
MOLT-4 leukemia = test system: MOLT-4 leukemia
HOP-62 NSCLC = test system: HOP-62 NSCLC
RPMI-8226 leukemia = test system: RPMI-8226 leukemia
LOX IMVI melanoma = test system: LOX IMVI melanoma
SNB-19 CNS = test system: SNB-19 CNS
NCI-H460 lung = test system: NCI-H460 lung
SR leukemia = test system: SR leukemia
HT29 colon = test system: HT29 colon
TK-10 renal = test system: TK-10 renal
HCT-15 colon = test system: HCT-15 colon
MCF7 breast = test system: MCF7 breast
ACHN renal = test system: ACHN renal
SF-295 CNS = test system: SF-295 CNS
NCI/ADR-RES ovarian = test system: NCI/ADR-RES ovarian
HL-60(TB) leukemia = test system: HL-60(TB) leukemia
MALME-3M melanoma = test system: MALME-3M melanoma
EKVX NSCLC = test system: EKVX NSCLC
SF-539 CNS = test system: SF-539 CNS
OVCAR-5 ovarian = test system: OVCAR-5 ovarian

With Nc1nc(-c2cccc([N+](=O)[O-])c2)c(N=Nc2ccc(Br)cc2)s1 the GI50 (SK-MEL-5 melanoma) was 16.9 µM, the TGI (SK-MEL-5 melanoma) was 31.5 µM and the GI50 (DU-145 prostate) was 8.14 µM. It also gave a TGI (DU-145 prostate) of 25.8 µM, a GI50 (KM12 colon) of 16.1 µM and a TGI (KM12 colon) greater than 100 µM. It also gave a GI50 (A549 NSCLC) of 17 µM, a TGI (A549 NSCLC) of 35.1 µM and a GI50 (SW-620 colon) of 15.4 µM. It also gave a TGI (SW-620 colon) of 78.8 µM, a GI50 (COLO 205 colon) of 24.6 µM and a TGI (COLO 205 colon) of 94 µM. For the same compound, the GI50 (OVCAR-3 ovarian) was 18.6 µM, the TGI (OVCAR-3 ovarian) was 41.3 µM and the GI50 (UACC-257 melanoma) was 22.4 µM. The TGI (UACC-257 melanoma) was 50.8 µM, the GI50 (BT-549 breast) was 15.7 µM and the TGI (BT-549 breast) was 40.8 µM. The GI50 (NCI-H522 lung) was 10.9 µM, the TGI (NCI-H522 lung) was 35.8 µM and the GI50 (786-0 renal) was 13.6 µM. For the same compound, the TGI (786-0 renal) was 27.5 µM, the GI50 (SK-MEL-28 melanoma) was 18.7 µM and the TGI (SK-MEL-28 melanoma) was 47 µM. The GI50 (HCC-2998 colon) was 18.7 µM, the TGI (HCC-2998 colon) was 38.8 µM and the GI50 (MDA-MB-435) was 20.5 µM. For the same compound, the TGI (MDA-MB-435) was 57.2 µM, the GI50 (HOP-92 NSCLC) was 10.1 µM and the TGI (HOP-92 NSCLC) was 32.1 µM. For the same compound, the GI50 (K-562 leukemia) was 10.3 µM, the TGI (K-562 leukemia) was greater than 100 µM and the GI50 (M14 melanoma) was 17.3 µM. The TGI (M14 melanoma) was 38.8 µM, the GI50 (SK-MEL-2 melanoma) was 18.6 µM and the TGI (SK-MEL-2 melanoma) was 51.8 µM. For the same compound, the GI50 (CAKI-1 renal) was 12 µM, the TGI (CAKI-1 renal) was 24.3 µM and the GI50 (HS 578T breast) was 19.3 µM. For the same compound, the TGI (HS 578T breast) was greater than 100 µM, the GI50 (T-47D breast) was 9.84 µM and the TGI (T-47D breast) was 46 µM. The GI50 (RXF 393 renal) was 12.6 µM, the TGI (RXF 393 renal) was 25.4 µM and the GI50 (MDA-MB-231 breast) was 7.74 µM. It also gave a TGI (MDA-MB-231 breast) of 24 µM, a GI50 (PC-3 prostate) of 20.2 µM and a TGI (PC-3 prostate) of 86 µM. For the same compound, the GI50 (OVCAR-4 ovarian) was 11.1 µM, the TGI (OVCAR-4 ovarian) was 63.3 µM and the GI50 (UO-31 renal) was 12.7 µM. It also gave a TGI (UO-31 renal) of 25.2 µM, a GI50 (SNB-75 CNS) of 18.4 µM and a TGI (SNB-75 CNS) of 41.1 µM. The GI50 (HCT-116 colon) was 4.63 µM, the TGI (HCT-116 colon) was 16 µM and the GI50 (SK-OV-3 ovarian) was 16 µM. It also gave a TGI (SK-OV-3 ovarian) of 30.1 µM, a GI50 (IGROV1 ovarian) of 16.2 µM and a TGI (IGROV1 ovarian) of 47.8 µM. The GI50 (SF-268 CNS) was 19.1 µM, the TGI (SF-268 CNS) was 99.4 µM and the GI50 (SN12C renal) was 14.1 µM. For the same compound, the TGI (SN12C renal) was 37.2 µM, the GI50 (UACC-62 melanoma) was 15.1 µM and the TGI (UACC-62 melanoma) was 41.4 µM. For the same compound, the GI50 (U251 CNS) was 14.2 µM, the TGI (U251 CNS) was 33.6 µM and the GI50 (A498 renal) was 16.7 µM. The TGI (A498 renal) was 31.7 µM, the GI50 (CCRF-CEM leukemia) was 13.4 µM and the TGI (CCRF-CEM leukemia) was greater than 100 µM. It also gave a GI50 (OVCAR-8 ovarian) of 10.2 µM, a TGI (OVCAR-8 ovarian) of 33.6 µM and a GI50 (MOLT-4 leukemia) of 12 µM. The TGI (MOLT-4 leukemia) was greater than 100 µM, the GI50 (HOP-62 NSCLC) was 15.2 µM and the TGI (HOP-62 NSCLC) was 29.8 µM. The GI50 (RPMI-8226 leukemia) was 21 µM, the TGI (RPMI-8226 leukemia) was greater than 100 µM and the GI50 (LOX IMVI melanoma) was 4 µM. It also gave a TGI (LOX IMVI melanoma) of 26.6 µM, a GI50 (SNB-19 CNS) of 20.3 µM and a TGI (SNB-19 CNS) of 50.1 µM. The GI50 (NCI-H460 lung) was 12.8 µM, the TGI (NCI-H460 lung) was 44.6 µM and the GI50 (SR leukemia) was 21.6 µM. It also gave a TGI (SR leukemia) greater than 100 µM, a GI50 (HT29 colon) of 19.4 µM and a TGI (HT29 colon) greater than 100 µM. It also gave a GI50 (TK-10 renal) of 21.6 µM, a TGI (TK-10 renal) of 36.5 µM and a GI50 (HCT-15 colon) of 5.57 µM. For the same compound, the TGI (HCT-15 colon) was 33.2 µM, the GI50 (MCF7 breast) was 12.7 µM and the TGI (MCF7 breast) was greater than 100 µM. It also gave a GI50 (ACHN renal) of 14.2 µM, a TGI (ACHN renal) of 27.3 µM and a GI50 (SF-295 CNS) of 23 µM. For the same compound, the TGI (SF-295 CNS) was 49.8 µM, the GI50 (NCI/ADR-RES ovarian) was 7.93 µM and the TGI (NCI/ADR-RES ovarian) was greater than 100 µM. It also gave a GI50 (HL-60(TB) leukemia) of 91.2 µM, a TGI (HL-60(TB) leukemia) greater than 100 µM and a GI50 (MALME-3M melanoma) of 16.3 µM. For the same compound, the TGI (MALME-3M melanoma) was 30.5 µM, the GI50 (EKVX NSCLC) was 17.9 µM and the TGI (EKVX NSCLC) was 64.1 µM. The GI50 (SF-539 CNS) was 3 µM, the TGI (SF-539 CNS) was 10.4 µM and the GI50 (OVCAR-5 ovarian) was 20.3 µM. It also gave a TGI (OVCAR-5 ovarian) of 54.4 µM.
